Reference: patent US11116760B2 (Gilead Sciences, Inc., priority 2018, dated 2021)
Values belong to the molecule of their own block, whether it stands above or below them.

Molecular target: α4β7 integrin (Homo sapiens (Human), UniProt P13612+P26010)
Assay: α4β7 Integrin Cell Capture Assay
Format: cell-based
[1] = Table 2, capture of α4β7 expressing RPM18866 cells on MadCAM-1 extracellular domain-coated plate
[2] = RPMI8866 cells captured on MadCAM-1 extracellular domain-coated plate
[3] = Table 1, capture of α4β7 expressing RPM18866 cells on MadCAM-1 extracellular domain-coated plate

Sequence of α4β7 integrin (P13612 34-1032): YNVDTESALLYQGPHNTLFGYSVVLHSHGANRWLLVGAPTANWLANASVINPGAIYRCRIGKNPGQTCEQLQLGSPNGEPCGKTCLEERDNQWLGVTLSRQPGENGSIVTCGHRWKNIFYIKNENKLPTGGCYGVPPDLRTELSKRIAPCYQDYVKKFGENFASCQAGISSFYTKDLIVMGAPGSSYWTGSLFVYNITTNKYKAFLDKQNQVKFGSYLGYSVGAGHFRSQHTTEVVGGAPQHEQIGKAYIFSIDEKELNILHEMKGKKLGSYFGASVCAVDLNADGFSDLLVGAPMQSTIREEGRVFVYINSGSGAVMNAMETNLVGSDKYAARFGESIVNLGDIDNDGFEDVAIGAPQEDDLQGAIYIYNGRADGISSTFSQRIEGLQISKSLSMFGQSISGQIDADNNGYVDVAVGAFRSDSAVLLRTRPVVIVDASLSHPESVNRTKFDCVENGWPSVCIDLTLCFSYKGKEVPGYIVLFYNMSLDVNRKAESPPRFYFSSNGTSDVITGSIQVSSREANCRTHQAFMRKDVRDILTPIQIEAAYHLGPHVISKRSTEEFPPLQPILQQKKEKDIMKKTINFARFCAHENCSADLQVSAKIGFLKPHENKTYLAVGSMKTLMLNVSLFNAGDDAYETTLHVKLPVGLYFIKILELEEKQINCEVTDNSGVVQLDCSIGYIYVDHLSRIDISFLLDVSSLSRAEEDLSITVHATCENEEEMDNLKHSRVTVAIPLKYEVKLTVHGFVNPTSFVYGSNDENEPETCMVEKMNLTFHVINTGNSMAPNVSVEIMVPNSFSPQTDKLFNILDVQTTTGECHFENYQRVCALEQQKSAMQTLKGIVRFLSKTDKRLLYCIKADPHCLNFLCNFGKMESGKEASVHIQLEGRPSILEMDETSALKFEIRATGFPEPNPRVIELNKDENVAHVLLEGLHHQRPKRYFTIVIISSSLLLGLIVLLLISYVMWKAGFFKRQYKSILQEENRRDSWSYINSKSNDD
Sequence of α4β7 integrin (P26010 20-798): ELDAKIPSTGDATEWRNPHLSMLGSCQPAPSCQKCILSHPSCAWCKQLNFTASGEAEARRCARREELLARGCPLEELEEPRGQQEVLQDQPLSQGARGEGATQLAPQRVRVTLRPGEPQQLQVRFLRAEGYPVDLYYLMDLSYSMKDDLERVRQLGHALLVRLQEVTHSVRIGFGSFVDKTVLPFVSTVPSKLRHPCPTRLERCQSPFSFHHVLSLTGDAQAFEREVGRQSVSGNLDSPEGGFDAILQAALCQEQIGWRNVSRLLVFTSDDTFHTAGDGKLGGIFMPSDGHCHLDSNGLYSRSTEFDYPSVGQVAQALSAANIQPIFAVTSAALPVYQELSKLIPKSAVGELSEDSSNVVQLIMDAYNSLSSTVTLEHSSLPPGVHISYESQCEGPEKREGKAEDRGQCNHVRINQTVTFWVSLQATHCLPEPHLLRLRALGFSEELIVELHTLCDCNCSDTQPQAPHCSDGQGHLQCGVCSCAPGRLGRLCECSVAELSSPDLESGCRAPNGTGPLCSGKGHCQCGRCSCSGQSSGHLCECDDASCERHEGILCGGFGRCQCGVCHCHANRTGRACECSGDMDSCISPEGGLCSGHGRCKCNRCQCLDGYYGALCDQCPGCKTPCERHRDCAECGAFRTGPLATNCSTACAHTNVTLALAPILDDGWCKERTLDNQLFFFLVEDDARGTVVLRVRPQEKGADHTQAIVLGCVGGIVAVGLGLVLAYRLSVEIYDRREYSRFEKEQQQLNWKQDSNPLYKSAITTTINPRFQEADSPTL

SMILES: N#Cc1ccccc1-c1ccc(C[C@H](NC(=O)c2c(F)cc(NS(=O)(=O)c3ccc(-c4ccnc(F)c4)cc3)cc2F)C(=O)O)c2cccnc12 [Example 59, (S)-3-(8-(2-cyanophenyl)quinolin-5-yl)-2-(2,6-difluoro-4-((4-(2-fluoropyridin-4-yl)phenyl)sulfonamido)benzamido)propanoic acid]
EC50 [3]: 3.2 nM

SMILES: N#Cc1ccc(-c2ccc(C[C@H](NC(=O)c3c(Cl)cc4cc[nH]c4c3Cl)C(=O)O)c3cccnc23)c(Cl)c1 [Example 317]
EC50 [1]: 13.8 nM

SMILES: CC[C@@H](Nc1cc(F)c(C(=O)N[C@@H](Cc2ccc(-c3nc(C)cc(OC)c3C(F)(F)F)c3ncccc23)C(=O)O)c(F)c1)C(F)(F)F [Example 275]
EC50 [1]: 4.8 nM

SMILES: COc1ccc(C)nc1-c1ccc(C[C@H](NC(=O)c2c(F)cc(N3CCOC[C@H]3C(F)(F)F)cc2F)C(=O)O)c2cccnc12 [Example 291]
EC50 [1]: 6.9 nM

SMILES: CC[C@@H](Nc1cc(F)c(C(=O)N[C@@H](Cc2ccc(-c3ncc(C)cc3N(C)C)c3ncccc23)C(=O)O)c(F)c1)C(F)(F)F [Example 313]
EC50 [1]: 13.3 nM

SMILES: Cc1cc(N2CCOC[C@@H]2C(F)(F)F)cc(F)c1C(=O)N[C@@H](Cc1ccc(-n2c(=O)c3ccncc3n(C)c2=O)c2ncc(F)cc12)C(=O)O [Example 426]
EC50 [2]: 0.096 nM

SMILES: Cc1cc(N2CCOC[C@@H]2C(F)(F)F)cc(F)c1C(=O)N[C@@H](Cc1ccc(-n2c(=O)c3cncnc3n(C)c2=O)c2ncccc12)C(=O)O [Example 406, (S)-2-(2-fluoro-6-methyl-4-((R)-3-(trifluoromethyl)morpholino)benzamido)-3-(8-(1-methyl-2,4-dioxo-1,4-dihydropyrimido[4,5-d]pyrimidin-3(2H)-yl)quinolin-5-yl)propanoic acid]
EC50 [2]: 0.08 nM

SMILES: CC[C@@H](Nc1cc(F)c(C(=O)N[C@@H](Cc2ccc(-c3cc(OC)cn(C)c3=O)c3ncccc23)C(=O)O)c(F)c1)C(F)(F)F [Example 481]
EC50 [2]: 1.48 nM

SMILES: Cc1cc(N2CCOC[C@@H]2C(F)(F)F)cc(F)c1C(=O)N[C@@H](Cc1ccc(-n2c(=O)c3cccnc3n(C)c2=O)c2ncccc12)C(=O)O [Example 432]
EC50 [2]: 0.11 nM

SMILES: CC[C@@H](Nc1cc(F)c(C(=O)N[C@@H](Cc2ccc(-c3ncc(C)cc3Cl)c3ncccc23)C(=O)O)c(F)c1)C(F)(F)F [Example 327]
EC50 [1]: 19.3 nM

SMILES: N#Cc1ccc(-c2ccc(C[C@H](NC(=O)c3c(F)cc(N[C@H](c4ccc(F)cc4)C(F)(F)F)cc3F)C(=O)O)c3cccnc23)c(Cl)c1 [Example 331]
EC50 [1]: 22.9 nM

SMILES: CC[C@@H](Nc1cc(F)c(C(=O)N[C@@H](Cc2ccc(-c3nc(C)ccc3C(F)(F)F)c3ncccc23)C(=O)O)c(F)c1)C(F)(F)F [Example 289]
EC50 [1]: 6.5 nM

SMILES: CC[C@@H](Nc1cc(F)c(C(=O)N[C@@H](Cc2ccc(-c3c(C)c(C)c(C)n(C)c3=O)c3ncccc23)C(=O)O)c(F)c1)C(F)(F)F [Example 115, (S)-2-(2,6-difluoro-4-(((R)-1,1,1-trifluorobutan-2-yl)amino)benzamido)-3-(8-(1,4,5,6-tetramethyl-2-oxo-1,2-dihydropyridin-3-yl)quinolin-5-yl)propanoic acid]
EC50 [3]: 0.6 nM

SMILES: Cc1cc(C(F)(F)F)c(-c2ccc(C[C@H](NC(=O)c3c(Cl)cccc3Cl)C(=O)O)c3cccnc23)c(=O)n1C [Example 73, (S)-2-(2,6-dichlorobenzamido)-3-(8-(1,6-dimethyl-2-oxo-4-(trifluoromethyl)-1,2-dihydropyridin-3-yl)quinolin-5-yl)propanoic acid]
EC50 [3]: 2.5 nM

SMILES: CC[C@@H](Nc1cc(F)c(C(=O)N[C@@H](Cc2ccc(-c3c(C(F)(F)F)cc(C)n(C)c3=O)c3nc(C)ccc23)C(=O)O)c(F)c1)C(F)(F)F [Example 183]
EC50 [1]: 0.9 nM

SMILES: CCOCc1cc(OC)c(-c2ccc(C[C@H](NC(=O)c3c(F)cccc3F)C(=O)O)c3cc(C#N)cnc23)c(OC)c1 [Example 36, (S)-3-(3-cyano-8-(4-(ethoxymethyl)-2,6-dimethoxyphenyl)quinolin-5-yl)-2-(2,6-difluorobenzamido)propanoic acid]
EC50 [3]: 21 nM

SMILES: N#Cc1ccc(-c2ccc(C[C@H](NC(=O)c3c(Cl)cc4[nH]c(C5CC5)cc4c3Cl)C(=O)O)c3cccnc23)c(Cl)c1 [Example 225]
EC50 [1]: 53.7 nM

SMILES: Cc1cc(N2CCOC[C@@H]2C(F)(F)F)cc(F)c1C(=O)N[C@@H](Cc1ccc(-n2c(=O)c3cnccc3n(C)c2=O)c2ncc(F)cc12)C(=O)O [Example 427]
EC50 [2]: 0.355 nM

SMILES: COc1cccc(C)c1-c1ccc(C[C@H](NC(=O)c2c(F)cc(NS(=O)(=O)c3ccc(-c4ccnc(F)c4)cc3)cc2F)C(=O)O)c2cccnc12 [Example 64, (2S)-2-(2,6-difluoro-4-((4-(2-fluoropyridin-4-yl)phenyl)sulfonamido)benzamido)-3-(8-(2-methoxy-6-methylphenyl)quinolin-5-yl)propanoic acid]
EC50 [3]: 0.8 nM

The remaining lines, values ahead:

EC50 [1]: 62.3 nM
SMILES: C[C@H](NC(=O)c1cc(F)c(C(=O)N[C@@H](Cc2ccc(-c3ccc(C#N)cc3Cl)c3ncccc23)C(=O)O)c(F)c1)C(F)(F)F [Example 195]

EC50 [2]: 0.337 nM
SMILES: Cc1cc(N2CC(F)(F)C2)c(-c2ccc(C[C@H](NC(=O)c3c(F)cc(N4CCOC[C@@H]4C(F)(F)F)cc3F)C(=O)O)c3cccnc23)c(=O)n1C [Example 476]

EC50 [2]: 0.191 nM
SMILES: Cc1cc(N2CCOC[C@@H]2C(F)(F)F)cc(F)c1C(=O)N[C@@H](Cc1ccc(-n2c(=O)[nH]c3cnccc3c2=O)c2ncccc12)C(=O)O [Example 421]

EC50 [1]: 1.5 nM
SMILES: CCOCc1cc(OC)c(-c2ccc(C[C@H](NC(=O)c3c(F)cc(N[C@H](CC)C(F)(F)F)cc3F)C(=O)O)c3cccnc23)c(OC)c1 [Example 201]

EC50 [1]: 18.7 nM
SMILES: N#Cc1ccc(-c2ccc(C[C@H](NC(=O)c3c(F)cc(N[C@H](c4ccccc4)C(F)F)cc3F)C(=O)O)c3cccnc23)c(Cl)c1 [Example 324]

EC50 [1]: 4.5 nM
SMILES: Cc1ccnc(-c2ccc(C[C@H](NC(=O)c3c(F)cc(N4CCOC[C@@H]4C(F)(F)F)cc3F)C(=O)O)c3cccnc23)c1C [Example 271]

EC50 [3]: 81.6 nM
SMILES: CCOCc1cc(OC)c(-c2cc(F)c(C[C@H](NC(=O)c3c(F)cccc3F)C(=O)O)c3cccnc23)c(OC)c1 [Example 39, (S)-2-(2,6-difluorobenzamido)-3-(8-(4-(ethoxymethyl)-2,6-dimethoxyphenyl)-6-fluoroquinolin-5-yl)propanoic acid]

EC50 [1]: 34.3 nM
SMILES: N#Cc1ccc(-c2ccc(C[C@H](NC(=O)c3c(Cl)cc4[nH]ccc4c3Cl)C(=O)O)c3cccnc23)c(Cl)c1 [Example 246]

EC50 [2]: 0.677 nM
SMILES: Cc1cc(N2CCCC[C@@H]2C(F)(F)F)cc(F)c1C(=O)N[C@@H](Cc1ccc(-c2nc(C)c(C)n(C)c2=O)c2ncccc12)C(=O)O [Example 453]

EC50 [1]: 97.1 nM
SMILES: N#Cc1ccc(-c2ccc(C[C@H](NC(=O)c3c(F)cc(O[C@H](c4ccccc4)C(F)(F)F)cc3F)C(=O)O)c3cccnc23)c(Cl)c1 [Example 175]

EC50 [1]: 63.1 nM
SMILES: O=C(N[C@@H](Cc1ccc(-c2cc3ccccc3oc2=O)c2ncccc12)C(=O)O)c1c(Cl)cccc1Cl [Example 196]

EC50 [3]: 0.3 nM
SMILES: Cc1c(C(F)(F)F)cn(C)c(=O)c1-c1ccc(C[C@H](NC(=O)c2c(F)cc(N3CCOC[C@@H]3C(F)(F)F)cc2F)C(=O)O)c2cccnc12 [Example 106, (S)-2-(2,6-difluoro-4-((R)-3-(trifluoromethyl)morpholino)benzamido)-3-(8-(1,4-dimethyl-2-oxo-5-(trifluoromethyl)-1,2-dihydropyridin-3-yl)quinolin-5-yl)propanoic acid]

EC50 [2]: 0.714 nM
SMILES: Cc1cc(N2CCOC[C@@H]2C(F)(F)F)cc(F)c1C(=O)N[C@@H](Cc1ccc(-c2nc(C)c(C)c(C)n2)c2ncccc12)C(=O)O [Example 443]

EC50 [3]: 12.8 nM
SMILES: C[C@@H](NC(=O)c1cc(F)c(C(=O)N[C@@H](Cc2ccc(-c3ccc(C#N)cc3Cl)c3ncccc23)C(=O)O)c(F)c1)c1ccccc1 [Example 27, (S)-3-(8-(2-chloro-4-cyanophenyl)quinolin-5-yl)-2-(2,6-difluoro-4-(((R)-1-phenylethyl)carbamoyl)benzamido)propanoic acid]

EC50 [3]: 0.3 nM
SMILES: CC[C@@H](Nc1cc(F)c(C(=O)N[C@@H](Cc2ccc(-c3cc4ccncc4n(C)c3=O)c3ncccc23)C(=O)O)c(F)c1)C(F)(F)F [Example 110, (S)-2-(2,6-difluoro-4-(((R)-1,1,1-trifluorobutan-2-yl)amino)benzamido)-3-(8-(1-methyl-2-oxo-1,2-dihydro-1,7-naphthyridin-3-yl)quinolin-5-yl)propanoic acid]

EC50 [2]: 0.05 nM
SMILES: Cc1cc(N2CCOC[C@@H]2C(F)(F)F)cc(F)c1C(=O)N[C@@H](Cc1ccc(-n2c(=O)c3ccncc3n(C)c2=O)c2ncccc12)C(=O)O [Example 356, (S)-2-(2-fluoro-6-methyl-4-((R)-3-(trifluoromethyl)morpholino)benzamido)-3-(8-(1-methyl-2,4-dioxo-1,4-dihydropyrido[3,4-d]pyrimidin-3(2H)-yl)quinolin-5-yl)propanoic acid]

EC50 [1]: 8.2 nM
SMILES: O=C(N[C@@H](Cc1ccc(-c2ncc3c(n2)CCC3)c2ncccc12)C(=O)O)c1c(F)cc(N2CCOC[C@@H]2C(F)(F)F)cc1F [Example 299]

EC50 [1]: 93.7 nM
SMILES: N#Cc1ccc(-c2ccc(C[C@H](NC(=O)c3c(F)cc(N[C@@H]4CCCCC4(F)F)cc3F)C(=O)O)c3cccnc23)c(Cl)c1 [Example 170]

EC50 [1]: 47.3 nM
SMILES: C[C@H](O)Cc1cc(F)c(C(=O)N[C@@H](Cc2ccc(-c3ccc(C#N)cc3Cl)c3ncccc23)C(=O)O)c(F)c1 [Example 286]

EC50 [3]: 30.5 nM
SMILES: Cc1ccccc1-c1ccc(C[C@H](NC(=O)c2c(F)cc(NS(=O)(=O)c3ccc(-c4ccnc(F)c4)cc3)cc2F)C(=O)O)c2cccnc12 [Example 63, (S)-2-(2,6-difluoro-4-((4-(2-fluoropyridin-4-yl)phenyl)sulfonamido)benzamido)-3-(8-(o-tolyl)quinolin-5-yl)propanoic acid]

EC50 [2]: 0.179 nM
SMILES: CCc1cc(N2CCOC[C@@H]2C(F)(F)F)cc(F)c1C(=O)N[C@@H](Cc1ccc(-c2c(C(F)(F)F)cc(C)n(C)c2=O)c2ncccc12)C(=O)O [Example 471]

EC50 [1]: 3.7 nM
SMILES: Cc1c(N(C)C)cc(-c2ccc(C[C@H](NC(=O)c3c(F)cc(N4CCOC[C@@H]4C(F)(F)F)cc3F)C(=O)O)c3cccnc23)c(=O)n1C [Example 259]
